Assay results reported in patent US7655629B2, “Peptides and their use for the treatment of HIV infections” (priority 2002, dated 2010).
Where two headings read alike, the source gives them in different places. Positions of bridges follow the written chain, without caps; N, C: chain ends. Non-standard residues stand in square brackets, D forms with d. Residues, ends and D or L forms follow the SMILES beside them. Chains are numbered I, II in the order given. Dip = N[C@H](C(=O)O)C(c1ccccc1)c1ccccc1; dTic = O=C(O)[C@H]1Cc2ccccc2CN1

Columns and labels:
[1] = rat, plasma
Description: (§2) Plasma was spiked resulting in concentrations of 40 μg/ml and stored at 37° C. At time points 0, 15, 30, 45, 60, 120, 180, 240 and 300 min samples of 20 μl were taken. The plasma was immediately mixed for precipitation with the two-fold volume of acetonitrile containing 0.15% (w/v) n-nonyl-β-D-glucopyranoside. Following centrifugation the supernatants were mixed with the two-fold volume of 0.1% (v/v) trifluroacetic acid. Twenty μl of these solutions were analyzed by LC-MS. Chromatography was performed using a gradient with the following eluents: eluent A: water containing 0.06% trifluroacetic acid (v/v), eluent B: acetonitrile/water 80:20 (v/v; with 0.05% trifluoroacetic acid; v/v). A C18 precolumn was used in combination with a C18 separation column (300 Å, 5 μm, 150×1 mm inner diameter) at a flow rate of 30 μl/min. HPLC eluates were ionized by the electrospray technique of a LCQ classic mass spectrometer. Areas of the detected peaks of the peptides of the present invention were measured and used for quantification by external calibration. The calibration curve was linear over a range from 0.5 μg/ml to 250 μg/ml plasma. Half life—defined as the period for a concentration decrease to 50% of the initial concentration—was calculated from the slope of an extrapolated curve plotting the relative peptide concentration at a given time point (logarithm scale) against the incubation time. These experiments allowed the quantitative analysis of peptide concentration in plasma.

[2] = cynomolgus monkey, plasma
Description: as §2

X4-tropic HIV-1 NL4-3 = conditions: read-out: IC50 NL4-3; P4-CCR5 cells, HIV-1 NL4-3, peptide 2 h before infection, readout three days after infection
Summary of the method: (§1)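 P4-CCR5 cells (CD4, CCR5, CXCR4, HIV-1 promoter-driven β-galactosidase) pretreated 2 h with peptide, then infected with virus containing 1 ng p24 antigen and incubated overnight. Cells washed and cultured without peptide; three days post-infection infectivity read by chemiluminescent β-galactosidase assay, in quintuplicate.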

HIV-1 NL4-3 DTV = conditions: read-out: IC50 DTV, P4-CCR5 cells, peptide 2 h before infection, readout three days after infection
Summary of the method: as §1

[3] = dog, plasma
Description: as §2

[4] = human, plasma
Description: as §2

Structure (SMILES) | half-life [1] | half-life [2] | IC50 (X4-tropic HIV-1 NL4-3) | IC50 (HIV-1 NL4-3 DTV) | half-life [3] | half-life [4]
CC[C@H](C)[C@H](NC(=O)[C@H](C)NC(=O)[C@H](CCC(=O)O)NC(=O)[C@@H](N)CC(C)C)C(=O)N1CCC[C@H]1C(=O)N[C@H]1CSSC[C@@H](C(=O)N[C@H](C(=O)N[C@@H](C)C(=O)N2Cc3ccccc3C[C@@H]2C(=O)N[C@@H](CC(N)=O)C(=O)N[C@@H](CCCCN)C(=O)N2CCC[C@H]2C(=O)N2Cc3ccccc3C[C@@H]2C(=O)N[C@@H](Cc2ccccc2)C(=O)N[C@H](C(=O)N[C@@H](Cc2ccccc2)C(=O)O)C(C)C)C(C)C)NC(=O)[C@@H]2CCCN2C(=O)[C@@H]2CCCN2C(=O)[C@H]([C@@H](C)CC)NC(=O)[C@H](CO)NC1=O [VIR-166, LEAIPCSIPPCVA(D-Tic)NKP(D-Tic)FVF] (H-LEAIPCSIPPCVA[dTic]NKP[dTic]FVF-OH; disulfide 6-11) | 0.4 h | 12.1 h | 0.356 µM | 0.506 µM | 11 h | 7.6 h
CC[C@H](C)[C@H](NC(=O)[C@H](C)NC(=O)[C@H](CCC(=O)O)NC(=O)[C@@H](N)CC(C)C)C(=O)N1CCC[C@H]1C(=O)N[C@@H](CCSC)C(=O)N[C@@H](CO)C(=O)N[C@H](C(=O)N1CCC[C@H]1C(=O)N1CCC[C@@H]1C(=O)N[C@@H](CCC(=O)O)C(=O)N[C@H](C(=O)N[C@@H](C)C(=O)N[C@@H](Cc1ccccc1)C(=O)N[C@@H](CC(N)=O)C(=O)N[C@@H](CCCCN)C(=O)N1CCC[C@H]1C(=O)N[C@@H](Cc1ccccc1)C(=O)N[C@H](C(=O)N[C@@H](Cc1ccccc1)C(=O)O)C(C)C)C(c1ccccc1)c1ccccc1)[C@@H](C)CC [VIR-261, LEAIPMSIPpE(3,3-diphenylalanine)AFNKPFVF] (H-LEAIPMSIP[dP]E[Dip]AFNKPFVF-OH) | 0.2 h | 6.5 h | 0.538 µM | 1.03 µM | 15.1 h | 7 h
CC[C@H](C)[C@H](NC(=O)[C@H](C)NC(=O)[C@H](CCC(=O)O)NC(=O)[C@@H](N)CC(C)C)C(=O)N1CCC[C@H]1C(=O)N[C@@H](CCSC)C(=O)N[C@H]1CSSC[C@@H](C(=O)N[C@@H](Cc2ccccc2)C(=O)N[C@@H](Cc2ccccc2)C(=O)N[C@@H](CC(N)=O)C(=O)N[C@@H](CCCCN)C(=O)N2CCC[C@H]2C(=O)N[C@@H](Cc2ccccc2)C(=O)N[C@H](C(=O)N[C@@H](Cc2ccccc2)C(=O)O)C(C)C)NC(=O)[C@H](CCC(=O)O)NC(=O)[C@@H]2CCCN2C(=O)[C@@H]2CCCN2C(=O)[C@H]([C@@H](C)CC)NC1=O [VIR-273] (H-LEAIPMCIPPECFFNKPFVF-OH; disulfide 7-12) | 0.1 h | 3.6 h | 0.332 µM | 1.1 µM | 12.4 h | 4.2 h
CC[C@H](C)[C@H](NC(=O)[C@H](C)NC(=O)[C@H](CCC(=O)O)NC(=O)[C@@H](N)CC(C)C)C(=O)N1CCC[C@H]1C(=O)N[C@@H](CCSC)C(=O)N[C@H]1CSSC[C@@H](C(=O)N[C@@H](CC(C)C)C(=O)N[C@@H](Cc2ccccc2)C(=O)NCC(=O)N[C@@H](CCCCN)C(=O)N2CCC[C@H]2C(=O)N[C@@H](Cc2ccccc2)C(=O)N[C@H](C(=O)N[C@@H](Cc2ccccc2)C(=O)O)C(C)C)NC(=O)[C@H](CCC(=O)O)NC(=O)[C@@H]2CCCN2C(=O)[C@@H]2CCCN2C(=O)[C@H]([C@@H](C)CC)NC1=O [VIR-274] (H-LEAIPMCIPPECLFGKPFVF-OH; disulfide 7-12) | 0.1 h | 2.8 h | 0.576 µM | 1.42 µM | 9.5 h | 2 h
CC[C@H](C)[C@H](NC(=O)[C@H](C)NC(=O)[C@H](CCC(=O)O)NC(=O)[C@@H](N)CC(C)C)C(=O)N1CCC[C@H]1C(=O)N[C@H]1CSSC[C@@H](C(=O)N[C@H](C(=O)N[C@@H](Cc2ccccc2)C(=O)N[C@@H](Cc2ccccc2)C(=O)NCC(=O)N[C@@H](CCCCN)C(=O)N2CCC[C@H]2C(=O)N[C@@H](Cc2ccccc2)C(=O)N[C@H](C(=O)N[C@@H](Cc2ccccc2)C(=O)O)C(C)C)C(C)C)NC(=O)[C@@H]2CCCN2C(=O)[C@@H]2CCCN2C(=O)[C@H]([C@@H](C)CC)NC(=O)[C@H](CO)NC1=O [VIR-344] (H-LEAIPCSIPPCVFFGKPFVF-OH; disulfide 6-11) | 0.1 h | 10.5 h | 0.348 µM | 0.448 µM | 6.6 h | 7 h
CC[C@H](C)[C@H](NC(=O)[C@H](C)NC(=O)[C@H](CCC(=O)O)NC(=O)[C@@H](N)CC(C)C)C(=O)N1CCC[C@H]1C(=O)N[C@H]1CSSC[C@@H](C(=O)N[C@@H](Cc2ccccc2)C(=O)N[C@@H](CC(C)C)C(=O)N[C@@H](Cc2ccccc2)C(=O)NCC(=O)N[C@@H](CCCCN)C(=O)N2CCC[C@H]2C(=O)N[C@@H](Cc2ccccc2)C(=O)N[C@H](C(=O)N[C@@H](Cc2ccccc2)C(=O)O)C(C)C)NC(=O)[C@@H]2CCCN2C(=O)[C@@H]2CCCN2C(=O)[C@H]([C@@H](C)CC)NC(=O)[C@H](CO)NC1=O [VIR-345] (H-LEAIPCSIPPCFLFGKPFVF-OH; disulfide 6-11) | 0.1 h | 5.1 h | 0.298 µM | 0.376 µM | 10.7 h | 5.6 h
CC[C@H](C)[C@H](NC(=O)[C@H](C)NC(=O)[C@H](CCC(=O)O)NC(=O)[C@@H](N)CC(C)C)C(=O)N1CCC[C@H]1C(=O)N[C@H]1CSSC[C@@H](C(=O)N[C@H](C(=O)NCC(=O)N[C@@H](Cc2ccccc2)C(=O)NCC(=O)N[C@@H](CCCCN)C(=O)N2CCC[C@H]2C(=O)N[C@@H](Cc2ccccc2)C(=O)N[C@H](C(=O)N[C@@H](Cc2ccccc2)C(=O)O)C(C)C)C(C)C)NC(=O)[C@H]2CCCN2C(=O)[C@@H]2CCCN2C(=O)[C@H]([C@@H](C)CC)NC(=O)[C@H](CO)NC1=O [VIR-348, LEAIPCSIPpCVGFGKPFVF] (H-LEAIPCSIP[dP]CVGFGKPFVF-OH; disulfide 6-11) | 0.2 h | 3 h | 0.326 µM | 0.541 µM | 9.3 h | 3.3 h
CC[C@H](C)[C@H](NC(=O)[C@H](C)NC(=O)[C@H](CCC(=O)O)NC(=O)[C@@H](N)CC(C)C)C(=O)N1CCC[C@H]1C(=O)N[C@H]1CSSC[C@@H](C(=O)N[C@H](C(=O)N[C@@H](Cc2ccccc2)C(=O)N[C@@H](Cc2ccccc2)C(=O)N[C@@H](CC(N)=O)C(=O)N[C@@H](CCCCN)C(=O)N2CCC[C@H]2C(=O)N[C@@H](Cc2ccccc2)C(=O)N[C@H](C(=O)N[C@@H](Cc2ccccc2)C(=O)O)C(C)C)C(C)C)NC(=O)[C@H]2CCCN2C(=O)[C@@H]2CCCN2C(=O)[C@H]([C@@H](C)CC)NC(=O)[C@H](CO)NC1=O [VIR-352, LEAIPCSIPpCVFFNKPFVF] (H-LEAIPCSIP[dP]CVFFNKPFVF-OH; disulfide 6-11) | 0.2 h | 6.4 h | 0.34 µM | 0.624 µM | 23.7 h | 3.6 h
CC[C@H](C)[C@H](NC(=O)[C@H](C)NC(=O)[C@H](CCC(=O)O)NC(=O)[C@@H](N)CC(C)C)C(=O)N1CCC[C@H]1C(=O)N[C@H]1CSSC[C@@H](C(=O)N[C@@H](Cc2ccccc2)C(=O)N[C@@H](CC(C)C)C(=O)N[C@@H](Cc2ccccc2)C(=O)N[C@@H](CC(N)=O)C(=O)N[C@@H](CCCCN)C(=O)N2CCC[C@H]2C(=O)N[C@@H](Cc2ccccc2)C(=O)N[C@H](C(=O)N[C@@H](Cc2ccccc2)C(=O)O)C(C)C)NC(=O)[C@H]2CCCN2C(=O)[C@@H]2CCCN2C(=O)[C@H]([C@@H](C)CC)NC(=O)[C@H](CO)NC1=O [VIR-353, LEAIPCSIPpCFLFNKPFVF] (H-LEAIPCSIP[dP]CFLFNKPFVF-OH; disulfide 6-11) | 0.2 h | 5 h | 0.225 µM | 0.181 µM | 15.2 h | 4 h
CC[C@H](C)[C@H](NC(=O)[C@H](C)NC(=O)[C@H](CCC(=O)O)NC(=O)[C@@H](N)CC(C)C)C(=O)N1CCC[C@H]1C(=O)N[C@@H](CSSC[C@H](NC(=O)[C@@H]1CCCN1C(=O)[C@@H](NC(=O)[C@H](C)NC(=O)[C@H](CCC(=O)O)NC(=O)[C@@H](N)CC(C)C)[C@@H](C)CC)C(=O)N[C@@H](CO)C(=O)N[C@H](C(=O)N1CCC[C@H]1C(=O)N1CCC[C@H]1C(=O)N[C@@H](CCC(=O)O)C(=O)N[C@@H](Cc1ccccc1)C(=O)N[C@@H](CC(C)C)C(=O)N[C@@H](Cc1ccccc1)C(=O)NCC(=O)N[C@@H](CCCCN)C(=O)N1CCC[C@H]1C(=O)N[C@@H](Cc1ccccc1)C(=O)N[C@H](C(=O)N[C@@H](Cc1ccccc1)C(=O)O)C(C)C)[C@@H](C)CC)C(=O)N[C@@H](CO)C(=O)N[C@H](C(=O)N1CCC[C@H]1C(=O)N1CCC[C@H]1C(=O)N[C@@H](CCC(=O)O)C(=O)N[C@@H](Cc1ccccc1)C(=O)N[C@@H](CC(C)C)C(=O)N[C@@H](Cc1ccccc1)C(=O)NCC(=O)N[C@@H](CCCCN)C(=O)N1CCC[C@H]1C(=O)N[C@@H](Cc1ccccc1)C(=O)N[C@H](C(=O)N[C@@H](Cc1ccccc1)C(=O)O)C(C)C)[C@@H](C)CC [VIR-576] (I: H-LEAIPCSIPPEFLFGKPFVF-OH / II: H-LEAIPCSIPPEFLFGKPFVF-OH; disulfide I:6-II:6) | 2.6 h | 3.8 h |  |  | 12.6 h | 5.8 h
